Experimental data reported in patent US20250346600A1, “TRICYCLIC DERIVATIVES AND RELATED USES” (MOMA Therapeutics, Inc., priority 2023, published 2025).

Experiments:
[1] = target: Full length WRN protein (aa 2-1432) (Homo sapiens (Human), UniProt Q14191); experiment: WRN ATPase ADP-Glo biochemical assay, Assay Format B (100 μM ATP); conditions: 0.25 nM WRN, 100 nM C6.18 ssDNA, 60 min preincubation, read-out: ATPase ADPGlo AC50 (uM)- Assay Format B
[2] = tested on: HT29 cells; experiment: HT29 (MSS) 7 day viability, CellTiter Glo; type: cell-based; conditions: Homo sapiens, HT-29, 168 h, 7 days, read-out: HT29 (MSS) Viability 7 Day CTGAbs AC50
Protocol: (§1) Compounds were dissolved in DMSO to a concentration of 10 mM. Compounds were then serially diluted in 10 3-fold steps in DMSO using an EVO (Tecan). Plates were then spun down for 1 minute at 1,000 RPM at room temperature.
(§2) The colon carcinoma lines HCT116 (RRID: CVCL_0291) and HT29 (RRID: CVCL_0320) were obtained from ATCC. […] All cells were maintained at 37° C. with 5% CO2 incubator.
(§3) After harvesting, cells were spun down for 5 minutes at 1200 RPM. Cells were resuspended in 10 mL of growth media and counted using Countess (Thermo Fisher). Cell concentrations were adjusted to 50 cells/well for HCT116 and 500 cells/well for HT29. 50 μL of diluted cells were added to compound treated 384 well plates using a 12 channel, 300 uL electronic handheld pipette (Integra). Cell treated plates were placed in 37 C with 5% CO2 incubator for 7 days.
(§4) Afterwards, cells were removed from incubator and equilibrated to room temperature for 15 minutes. 35 uL of CellTiter Glo (Promega #G7573) reagent were added to each well using a 12 channel, 300 uL electronic handheld pipette (Integra). Plates were incubated for 20 minutes at room temperature. Luminescence quantification was performed using Envision (PerkinElmer).
(§5) For data analysis, the assay background signal was determined in wells containing medium, but no cells. Potencies were calculated by linear least squares fit to the four-parameter logistic IC50 equation. The reported IC50 values are the geometrical mean of at least 2 independent replicates.

[3] = tested on: HCT116 cells; experiment: HCT116 (MSI) 7 day viability, CellTiter Glo; type: cell-based; conditions: Homo sapiens, HCT-116, 168 h, 7 days, read-out: HCT116 (MSI) Viability 7 Day Abs AC50
Protocol: as §1, §2, §3, §4, §5

Sequence of Full length WRN protein (aa 2-1432) (Q14191 2-1432): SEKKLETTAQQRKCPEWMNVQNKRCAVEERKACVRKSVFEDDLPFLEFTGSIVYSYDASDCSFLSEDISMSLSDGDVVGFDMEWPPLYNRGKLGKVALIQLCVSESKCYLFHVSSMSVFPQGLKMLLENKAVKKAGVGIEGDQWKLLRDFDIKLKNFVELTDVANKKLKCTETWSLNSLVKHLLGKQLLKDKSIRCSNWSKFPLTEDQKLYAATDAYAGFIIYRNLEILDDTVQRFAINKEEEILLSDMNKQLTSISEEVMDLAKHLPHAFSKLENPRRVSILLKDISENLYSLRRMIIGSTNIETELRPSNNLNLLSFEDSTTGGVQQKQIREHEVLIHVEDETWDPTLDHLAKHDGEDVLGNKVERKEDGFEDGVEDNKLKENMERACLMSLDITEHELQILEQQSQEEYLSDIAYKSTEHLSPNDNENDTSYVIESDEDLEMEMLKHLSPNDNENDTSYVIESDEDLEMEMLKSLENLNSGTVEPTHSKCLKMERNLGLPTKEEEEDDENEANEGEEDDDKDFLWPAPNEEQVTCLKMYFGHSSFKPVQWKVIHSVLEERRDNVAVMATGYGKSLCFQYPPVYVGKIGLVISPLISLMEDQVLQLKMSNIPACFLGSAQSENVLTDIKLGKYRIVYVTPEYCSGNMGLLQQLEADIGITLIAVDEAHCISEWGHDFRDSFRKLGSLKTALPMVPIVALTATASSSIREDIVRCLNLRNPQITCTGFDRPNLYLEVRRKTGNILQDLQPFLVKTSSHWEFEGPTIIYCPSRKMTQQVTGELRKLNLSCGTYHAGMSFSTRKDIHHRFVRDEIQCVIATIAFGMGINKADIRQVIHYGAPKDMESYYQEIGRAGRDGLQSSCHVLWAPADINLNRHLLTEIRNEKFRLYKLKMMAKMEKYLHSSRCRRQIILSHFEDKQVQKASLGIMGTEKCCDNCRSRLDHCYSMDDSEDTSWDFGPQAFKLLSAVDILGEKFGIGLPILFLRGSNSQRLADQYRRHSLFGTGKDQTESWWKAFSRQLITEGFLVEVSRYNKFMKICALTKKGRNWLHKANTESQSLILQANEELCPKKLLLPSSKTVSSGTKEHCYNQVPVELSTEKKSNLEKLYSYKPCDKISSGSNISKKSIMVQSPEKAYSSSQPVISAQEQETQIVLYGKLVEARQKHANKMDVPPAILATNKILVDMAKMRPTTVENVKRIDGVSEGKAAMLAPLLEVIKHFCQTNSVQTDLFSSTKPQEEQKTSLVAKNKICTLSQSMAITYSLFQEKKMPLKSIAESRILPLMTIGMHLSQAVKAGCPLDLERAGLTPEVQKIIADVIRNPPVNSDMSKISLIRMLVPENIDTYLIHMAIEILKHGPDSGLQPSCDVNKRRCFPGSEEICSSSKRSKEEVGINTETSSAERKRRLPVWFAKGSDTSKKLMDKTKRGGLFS

C=CC(=O)N1CCc2nn(-c3ccc(C4CC4)cc3)c3c2C(C1)N(C(=O)c1cnc(C(F)(F)F)cc1NC)CC3 (stereo not drawn) [Compound 179, 1-(2-(4-cyclopropylphenyl)-5-(4-(methylamino)-6-(trifluoromethyl)nicotinoyl)-2,3,4,5,5a,6,8,9-octahydro-7H-1,2,5,7-tetraazabenzo[cd]azulen-7-yl)prop-2-en-1-one]
AC50 [1]: 0.015 to 0.055 µM
AC50 [2]: > 3000 nM
AC50 [3]: 100 to 250 nM

C=CC(=O)N1CCc2nn(-c3ccc(CC(F)(F)F)cc3O)c3c2C(C1)N(C(=O)c1cnc(C(F)(F)F)cc1N)CC3 (stereo not drawn) [Compound 180, 1-(5-(4-amino-6-(trifluoromethyl)nicotinoyl)-2-(2-hydroxy-4-(2,2,2-trifluoroethyl)phenyl)-2,3,4,5,5a,6,8,9-octahydro-7H-1,2,5,7-tetraazabenzo[cd]azulen-7-yl)prop-2-en-1-one]
AC50 [1]: 0.015 to 0.055 µM
AC50 [2]: > 3000 nM
AC50 [3]: 1 to 100 nM

C=CC(=O)N1CCc2nn(-c3ccc(C4CCC4)cc3)c3c2C(C1)N(C(=O)c1cnc2c(C(F)(F)F)nn(C)c2c1)CC3 (stereo not drawn) [Compound 185, 1-(2-(4-cyclobutylphenyl)-5-(1-methyl-3-(trifluoromethyl)-1H-pyrazolo[4,3-b]pyridine-6-carbonyl)-2,3,4,5,5a,6,8,9-octahydro-7H-1,2,5,7-tetraazabenzo[cd]azulen-7-yl)prop-2-en-1-one]
AC50 [1]: 0.015 to 0.055 µM
AC50 [2]: 1000 to 3000 nM
AC50 [3]: 1 to 100 nM

C=CC(=O)N1CCc2nn(-c3ccc(C4CC4)cc3)c3c2C(C1)N(C(=O)c1c(N)cc(Br)c2[nH]cnc12)CC3 (stereo not drawn) [Compound 188, 1-(5-(5-amino-7-bromo-1H-benzo[d]imidazole-4-carbonyl)-2-(4-cyclopropylphenyl)-2,3,4,5,5a,6,8,9-octahydro-7H-1,2,5,7-tetraazabenzo[cd]azulen-7-yl)prop-2-en-1-one]
AC50 [1]: 0.0015 to 0.005 µM
AC50 [2]: > 3000 nM
AC50 [3]: 1 to 100 nM

C=CC(=O)N1CC(C)c2nn(-c3ccc(C4CC4)cc3O)c3c2C(C1)N(C(=O)c1cnc(Br)cc1N)CC3 (stereo not drawn) [Compound 190, 1-(5-(4-amino-6-bromonicotinoyl)-2-(4-cyclopropyl-2-hydroxyphenyl)-9-methyl-2,3,4,5,5a,6,8,9-octahydro-7H-1,2,5,7-tetraazabenzo[cd]azulen-7-yl)prop-2-en-1-one]
AC50 [1]: 0.005 to 0.015 µM
AC50 [2]: > 3000 nM
AC50 [3]: 1 to 100 nM

C=CC(=O)N1CCc2nn(-c3ccc(C4CC4)cc3O)c3c2C(C1)N(C(=O)c1cnc(Br)cc1N)CC3 (stereo not drawn) [Compound 191, 1-(5-(4-amino-6-bromonicotinoyl)-2-(4-cyclopropyl-2-hydroxyphenyl)-2,3,4,5,5a,6,8,9-octahydro-7H-1,2,5,7-tetraazabenzo[cd]azulen-7-yl)prop-2-en-1-one]
AC50 [1]: 0.005 to 0.015 µM
AC50 [2]: > 3000 nM
AC50 [3]: 1 to 100 nM

C=CC(=O)N1CCc2nn(-c3ccc(C4CC4)cc3O)c3c2C(C1)N(C(=O)c1cnc(C(F)(F)F)nc1N)CC3 (stereo not drawn) [Compound 197, 1-(5-(4-amino-2-(trifluoromethyl)pyrimidine-5-carbonyl)-2-(4-cyclopropyl-2-hydroxyphenyl)-2,3,4,5,5a,6,8,9-octahydro-7H-1,2,5,7-tetraazabenzo[cd]azulen-7-yl)prop-2-en-1-one]
AC50 [1]: 0.005 to 0.015 µM
AC50 [2]: > 3000 nM
AC50 [3]: 1 to 100 nM

C=CC(=O)N1CCc2nn(-c3ccc(C4CC4)c(F)c3O)c3c2C(C1)N(C(=O)c1cnc(C(F)(F)F)cc1N)CC3 (stereo not drawn) [Compound 203, 1-(5-(4-amino-6-(trifluoromethyl)nicotinoyl)-2-(4-cyclopropyl-3-fluoro-2-hydroxyphenyl)-2,3,4,5,5a,6,8,9-octahydro-7H-1,2,5,7-tetraazabenzo[cd]azulen-7-yl)prop-2-en-1-one]
AC50 [1]: 0.005 to 0.015 µM
AC50 [2]: > 3000 nM
AC50 [3]: 1 to 100 nM

C=CC(=O)N1CCc2nn(-c3ccc(C4CC4)cc3)c3c2C(C1)N(C(=O)c1cnc(SC)nc1N)CC3 (stereo not drawn) [Compound 204, 1-(5-(4-amino-2-(methylthio)pyrimidine-5-carbonyl)-2-(4-cyclopropylphenyl)-2,3,4,5,5a,6,8,9-octahydro-7H-1,2,5,7-tetraazabenzo[cd]azulen-7-yl)prop-2-en-1-one]
AC50 [1]: 0.015 to 0.055 µM
AC50 [2]: > 3000 nM
AC50 [3]: 1 to 100 nM

C=CC(=O)N1CC(OC2CN(C(C)=O)C2)c2nn(-c3ccc(C4CCC4)cc3)c3c2C(C1)N(C(=O)c1ccc(C(F)(F)F)nc1)CC3 (stereo not drawn) [Compound 205, 1-(9-((1-acetylazetidin-3-yl)oxy)-2-(4-cyclobutylphenyl)-5-(6-(trifluoromethyl)nicotinoyl)-2,3,4,5,5a,6,8,9-octahydro-7H-1,2,5,7-tetraazabenzo[cd]azulen-7-yl)prop-2-en-1-one]
AC50 [1]: 0.005 to 0.015 µM
AC50 [2]: > 3000 nM
AC50 [3]: 1 to 100 nM

C=CC(=O)N1CCc2nn(-c3ccc(C4CC4)cc3O)c3c2C(C1)N(C(=O)c1cc(C#N)c(C(F)(F)F)cc1N)CC3 (stereo not drawn) [Compound 207, 5-(7-acryloyl-2-(4-cyclopropyl-2-hydroxyphenyl)-3,4,5,5a,6,7,8,9-octahydro-2H-1,2,5,7-tetraazabenzo[cd]azulene-5-carbonyl)-4-amino-2-(trifluoromethyl) benzonitrile]
AC50 [1]: 0.005 to 0.015 µM
AC50 [2]: > 3000 nM
AC50 [3]: 1 to 100 nM

C=CC(=O)N1CCc2nn(-c3ccc(C4CC4)cc3O)c3c2C(C1)N(C(=O)c1cnc(C(F)(F)F)c(C)c1N)CC3 (stereo not drawn) [Compound 208, 1-(5-(4-amino-5-methyl-6-(trifluoromethyl)nicotinoyl)-2-(4-cyclopropyl-2-hydroxyphenyl)-2,3,4,5,5a,6,8,9-octahydro-7H-1,2,5,7-tetraazabenzo[cd]azulen-7-yl)prop-2-en-1-one]
AC50 [1]: 0.0015 to 0.005 µM
AC50 [2]: > 3000 nM
AC50 [3]: 1 to 100 nM

C=CC(=O)N1CCc2nn(-c3ccc(C4CC4)cc3O)c3c2C(C1)N(C(=O)c1cnc(SC(F)(F)F)cc1N)CC3 (stereo not drawn) [Compound 209, 1-(5-(4-amino-6-((trifluoromethyl)thio)nicotinoyl)-2-(4-cyclopropyl-2-hydroxyphenyl)-2,3,4,5,5a,6,8,9-octahydro-7H-1,2,5,7-tetraazabenzo[cd]azulen-7-yl)prop-2-en-1-one]
AC50 [1]: 0.0015 to 0.005 µM
AC50 [2]: > 3000 nM
AC50 [3]: 1 to 100 nM

C=CC(=O)N1CCc2nn(-c3ccc(C4CC4)cc3O)c3c2C(C1)N(C(=O)c1cnc(Cl)c(F)c1N)CC3 (stereo not drawn) [Compound 210, 1-(5-(4-amino-6-chloro-5-fluoronicotinoyl)-2-(4-cyclopropyl-2-hydroxyphenyl)-2,3,4,5,5a,6,8,9-octahydro-7H-1,2,5,7-tetraazabenzo[cd]azulen-7-yl)prop-2-en-1-one]
AC50 [1]: 0.0015 to 0.005 µM
AC50 [2]: > 3000 nM
AC50 [3]: 1 to 100 nM

C=CC(=O)N1CCc2nn(-c3ccc(C4CC4)cc3O)c3c2C(C1)N(C(=O)c1cnc(SC)cc1N)CC3 (stereo not drawn) [Compound 211, 1-(5-(4-amino-6-(methylthio)nicotinoyl)-2-(4-cyclopropyl-2-hydroxyphenyl)-2,3,4,5,5a,6,8,9-octahydro-7H-1,2,5,7-tetraazabenzo[cd]azulen-7-yl)prop-2-en-1-one]
AC50 [1]: 0.0015 to 0.005 µM
AC50 [2]: > 3000 nM
AC50 [3]: 1 to 100 nM

C=CC(=O)N1CCc2nn(-c3ccc(C4CC4)cc3O)c3c2C(C1)N(C(=O)c1c(N)cc(Br)c2nc[nH]c12)CC3 (stereo not drawn) [Compound 212, 1-(5-(6-amino-4-bromo-1H-benzo[d]imidazole-7-carbonyl)-2-(4-cyclopropyl-2-hydroxyphenyl)-2,3,4,5,5a,6,8,9-octahydro-7H-1,2,5,7-tetraazabenzo[cd]azulen-7-yl)prop-2-en-1-one]
AC50 [1]: 0.0015 to 0.005 µM
AC50 [2]: > 3000 nM
AC50 [3]: 1 to 100 nM

C=CC(=O)N1CCc2nn(-c3ccc(C4CC4)cc3O)c3c2C(C1)N(C(=O)c1ccc(C(F)(F)F)nc1)CC3 (stereo not drawn) [Compound 213, 1-(2-(4-cyclopropyl-2-hydroxyphenyl)-5-(6-(trifluoromethyl)nicotinoyl)-2,3,4,5,5a,6,8,9-octahydro-7H-1,2,5,7-tetraazabenzo[cd]azulen-7-yl)prop-2-en-1-one]
AC50 [1]: 0.005 to 0.015 µM
AC50 [2]: > 3000 nM
AC50 [3]: 1 to 100 nM

C=CC(=O)N1CCc2nn(-c3ccc(C4CC4)cc3O)c3c2C(C1)N(C(=O)c1cnc(SC(F)(F)F)c(F)c1N)CC3 (stereo not drawn) [Compound 214, 1-(5-(4-amino-5-fluoro-6-((trifluoromethyl)thio)nicotinoyl)-2-(4-cyclopropyl-2-hydroxyphenyl)-2,3,4,5,5a,6,8,9-octahydro-7H-1,2,5,7-tetraazabenzo[cd]azulen-7-yl)prop-2-en-1-one]
AC50 [1]: 0.005 to 0.015 µM
AC50 [2]: > 3000 nM
AC50 [3]: 1 to 100 nM

C=CC(=O)N1CCc2nn(-c3ccc(C4CC4)c(F)c3O)c3c2C(C1)N(C(=O)c1cnc(Br)cc1N)CC3 (stereo not drawn) [Compound 215, 1-(5-(4-amino-6-bromonicotinoyl)-2-(4-cyclopropyl-3-fluoro-2-hydroxyphenyl)-2,3,4,5,5a,6,8,9-octahydro-7H-1,2,5,7-tetraazabenzo[cd]azulen-7-yl)prop-2-en-1-one]
AC50 [1]: 0.0015 to 0.005 µM
AC50 [2]: > 3000 nM
AC50 [3]: 1 to 100 nM
